# How the values were obtained:
# HIV-1 NL4-3 = experiment: susceptibility of HIV-1 strains to an attachment inhibitor (IC50, inhibition of virus replication); format: cell-based; conditions: Human immunodeficiency virus 1, NL43; HIV-1 laboratory strain NL4-3
# Excerpt: (§1) As used herein, “ICn” refers to Inhibitory Concentration. It is the concentration of drug in the patient's blood or in vitro needed to suppress the reproduction of a disease-causing virus (such as HIV) by n %. Thus, “IC50” refers to the concentration of an anti-viral agent at which virus replication is inhibited by 50% of the level observed in the absence of the drug.
# (§2) Two laboratory strains of HIV-1 were used in this assay.
# HIV-1 RF strain = experiment: as above; format: cell-based; conditions: Human immunodeficiency virus 1; HIV-1 laboratory strain RF
# Excerpt: as §1, §2
# [1] = system: HIV-1 RF strain binding to sCD4-Fc; experiment: immunoassay: virus capture by sCD4-Fc on protein G beads, quantitated by p24 ELISA; conditions: attachment inhibitor 0.5 uM, 15 min room temperature, FIG. 2
# Method: (§3) Two laboratory strains of HIV-1 were used in this assay, NL4-3, which is susceptible to the attachment inhibitor, the other is RF, which is insensitive to the action of the attachment inhibitor. The amount of virus present with and without attachment inhibitor (AI) is quantitated by a p24 ELISA.
# (§4) Virus stock was diluted to 1×10^4 TCID50 per ml in RPMI media with 10% fetal bovine serum (FBS). The attachment inhibitor (or DMSO) was added to a final concentration of 0.5 uM and the mixture incubated for 15 min at room temperature. Eighty microliters of sCD4-Fc (a recombinant protein containing the gp120 binding domain of CD4 connected to an immunoglobulin […]) at 5Oug/ml was added and incubated for an additional 30 min, with gentle rocking. Twenty microliters of protein G SEPHAROSE® beads (binding capacity of 200 ug IgG) was added and rocked at 4° C. for an additional 60 min. Unbound virus was removed by washing the beads 4 times with excess PBS. Virus captured on the beads was lysed with 0.5% Triton X-100 and the beads removed by centrifugation. The amount of virus present in the supernatant is quantitated by a p24 ELISA, according to the manufacturer's instructions (PerkinElmer NEK-050).
# [2] = system: HIV-1 NL4-3 binding to sCD4-Fc; experiment: as above; conditions: attachment inhibitor 0.5 uM, 15 min room temperature, FIG. 2
# Method: as §3, §4
smiles,measurement,setting,value
"COc1cnc(-n2cnc(C)n2)c2[nH]cc(C(=O)C(=O)N3CCN(C(=O)c4ccccc4)CC3)c12 [attachment inhibitor, 1-(4-benzoyl-piperazin-1-yl)-2-[4-methoxy-7-(3-methyl-[1,2,4]triazol-1-yl)-1H-pyrralo[2,3-c]pyridine-3-yl]-ethane-1,2-dione]",IC50,HIV-1 NL4-3,2.2 ± 0.6 nM
same,IC50,HIV-1 RF strain,> 2000 nM
same,amount of virus captured by sCD4-Fc (p24 ELISA) with attachment inhibitor versus DMSO,[1],no significant difference
same,amount of virus captured by sCD4-Fc (p24 ELISA) with attachment inhibitor versus DMSO,[2],much less than when DMSO is used

# From patent US20140356863A1, “METHODS FOR DETERMINING THE SUSCEPTIBILITY OF A VIRUS TO AN ATTACHMENT INHIBITOR” (BRISTOL-MYERS SQUIBB COMPANY, priority 2011, published 2014)
